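How tested: cells in 96-well plates exposed to compound for 48 hours at five concentrations. TGI is the concentration that stops growth completely.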
Tests used:
Experiment in all cases: NCI-60 cell line screen, 48 h
[1] = test system: 786-0 renal
[2] = test system: A549 NSCLC
[3] = test system: ACHN renal
[4] = test system: BT-549 breast
[5] = test system: CAKI-1 renal
[6] = test system: CCRF-CEM leukemia
[7] = test system: COLO 205 colon
[8] = test system: DU-145 prostate
[9] = test system: EKVX NSCLC
[10] = test system: HCC-2998 colon
[11] = test system: HCT-116 colon
[12] = test system: HCT-15 colon
[13] = test system: HL-60(TB) leukemia
[14] = test system: HOP-62 NSCLC
[15] = test system: HOP-92 NSCLC
[16] = test system: HS 578T breast
[17] = test system: HT29 colon
[18] = test system: IGROV1 ovarian
[19] = test system: K-562 leukemia
[20] = test system: KM12 colon
[21] = test system: LOX IMVI melanoma
[22] = test system: M14 melanoma
[23] = test system: MALME-3M melanoma
[24] = test system: MCF7 breast
[25] = test system: MDA-MB-231 breast
[26] = test system: MDA-MB-435
[27] = test system: MDA-N
[28] = test system: MOLT-4 leukemia
[29] = test system: NCI-H226 lung
[30] = test system: NCI-H23 lung
[31] = test system: NCI-H460 lung
[32] = test system: NCI-H522 lung
[33] = test system: NCI/ADR-RES ovarian
[34] = test system: OVCAR-3 ovarian
[35] = test system: OVCAR-4 ovarian
[36] = test system: OVCAR-5 ovarian
[37] = test system: OVCAR-8 ovarian
[38] = test system: PC-3 prostate
[39] = test system: RPMI-8226 leukemia
[40] = test system: RXF 393 renal
[41] = test system: SF-268 CNS
[42] = test system: SF-295 CNS
[43] = test system: SF-539 CNS
[44] = test system: SK-MEL-2 melanoma
[45] = test system: SK-MEL-28 melanoma
[46] = test system: SK-MEL-5 melanoma
[47] = test system: SK-OV-3 ovarian
[48] = test system: SN12C renal
[49] = test system: SNB-19 CNS
[50] = test system: SNB-75 CNS
[51] = test system: SR leukemia
[52] = test system: SW-620 colon
[53] = test system: T-47D breast
[54] = test system: TK-10 renal
[55] = test system: U251 CNS
[56] = test system: UACC-257 melanoma
[57] = test system: UACC-62 melanoma
[58] = test system: UO-31 renal
[59] = test system: A498 renal

OCCOCCN1CCN(c2nc(N3CCCC3)c3nc(Cl)c(NCc4ccccc4)nc3n2)CC1
TGI [1]: 26.5 µM | TGI [2]: 28.4 µM | TGI [3]: 27.2 µM | TGI [4]: 29.1 µM | TGI [5]: 31.1 µM | TGI [6]: 32.9 µM | TGI [7]: 21.7 µM | TGI [8]: 25.3 µM | TGI [9]: 27.1 µM | TGI [10]: 15 µM | TGI [11]: 26.4 µM | TGI [12]: 15.3 µM | TGI [13]: 29 µM | TGI [14]: 26.7 µM | TGI [15]: 26.2 µM | TGI [16]: 43.5 µM | TGI [17]: 13.7 µM | TGI [18]: 33.9 µM | TGI [19]: 16.4 µM | TGI [20]: 26.8 µM | TGI [21]: 23 µM | TGI [22]: 24.8 µM | TGI [23]: 29.9 µM | TGI [24]: 29.5 µM | TGI [25]: 32.7 µM | TGI [26]: 26 µM | TGI [27]: 22.7 µM | TGI [28]: 27.8 µM | TGI [29]: 40.7 µM | TGI [30]: 31.4 µM | TGI [31]: 24.7 µM | TGI [32]: 31.5 µM | TGI [33]: 31.1 µM | TGI [34]: 29.2 µM | TGI [35]: 30.8 µM | TGI [36]: 28.9 µM | TGI [37]: 32.2 µM | TGI [38]: 27.1 µM | TGI [39]: 27.9 µM | TGI [40]: 11.8 µM | TGI [41]: 31.9 µM | TGI [42]: 29.3 µM | TGI [43]: 88.3 µM | TGI [44]: 32 µM | TGI [45]: 30.2 µM | TGI [46]: 17.9 µM | TGI [47]: 31.9 µM | TGI [48]: 29.4 µM | TGI [49]: 29.8 µM | TGI [50]: 36.5 µM | TGI [51]: 17.8 µM | TGI [52]: 44.6 µM | TGI [53]: 30.6 µM | TGI [54]: 25 µM | TGI [55]: 25.5 µM | TGI [56]: 27.4 µM | TGI [57]: 27.3 µM | TGI [58]: 21.7 µM

COc1ccc(C2=NN(C(=O)c3ccccc3)C(O)(c3cc(F)c(Cl)cc3Cl)C2)cc1OC (stereo not given)
TGI [1]: > 100 µM | TGI [59]: > 100 µM | TGI [2]: > 100 µM | TGI [3]: > 100 µM | TGI [4]: > 100 µM | TGI [5]: > 100 µM | TGI [6]: > 100 µM | TGI [7]: > 100 µM | TGI [8]: > 100 µM | TGI [9]: > 100 µM | TGI [10]: > 100 µM | TGI [11]: > 100 µM | TGI [12]: > 100 µM | TGI [13]: > 100 µM | TGI [14]: 43 µM | TGI [15]: 78.9 µM | TGI [16]: > 100 µM | TGI [17]: > 100 µM | TGI [18]: > 100 µM | TGI [19]: > 100 µM | TGI [20]: > 100 µM | TGI [21]: > 100 µM | TGI [22]: > 100 µM | TGI [23]: > 100 µM | TGI [24]: > 100 µM | TGI [25]: > 100 µM | TGI [26]: > 100 µM | TGI [27]: > 100 µM | TGI [28]: > 100 µM | TGI [29]: > 100 µM | TGI [30]: > 100 µM | TGI [31]: > 100 µM | TGI [32]: > 100 µM | TGI [33]: > 100 µM | TGI [34]: 69.3 µM | TGI [35]: 53.1 µM | TGI [36]: > 100 µM | TGI [37]: > 100 µM | TGI [38]: > 100 µM | TGI [39]: > 100 µM | TGI [40]: 55.5 µM | TGI [41]: > 100 µM | TGI [42]: > 100 µM | TGI [43]: > 100 µM | TGI [44]: 91.7 µM | TGI [45]: > 100 µM | TGI [46]: > 100 µM | TGI [47]: 48.8 µM | TGI [48]: > 100 µM | TGI [49]: > 100 µM | TGI [52]: > 100 µM | TGI [53]: > 100 µM | TGI [54]: 98.1 µM | TGI [55]: > 100 µM | TGI [56]: > 100 µM | TGI [57]: > 100 µM | TGI [58]: 89.4 µM

Source: PubChem BioAssay (NCI)
